{
  "source": "PubChem BioAssay AID330",
  "about": "(DTP/NCI, 2004)",
  "system": "P388 leukemia ip, CD2F1 mice, survival T/C",
  "experiment": "NCI In Vivo Anticancer Drug Screen. Data for tumor model P388 Leukemia (intraperitoneal) in CD2F1 (CDF1) mice",
  "conditions": "endpoint: median survival time, higher = longer survival",
  "how_it_was_run": "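Mice carrying the transplanted tumor received test compound or vehicle. Survival was recorded in each group, and the value is the treated-group measurement divided by that of the vehicle-treated control group.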",
  "key": {"[1]": {"conditions": "dose: 25.0 mg/kg/injection, schedule: Q01DX001 (ip), vehicle: Klucel (hydroxypropylcellulose) (HPC)"}},
  "note": "Where “and” joins values, the source holds several entries; their conditions need not be identical. Identical values can stand only once. Toxic doses and inconclusive results are not listed.",
  "data": [
    {"smiles": "Cn1c(=O)c2c(ncn2CCNC(c2ccccc2)c2ccc(Br)cc2)n(C)c1=O", "note": "(stereo not drawn)", "values": [
      {"measurement": "T/C", "setting": "dose: 6.25 mg/kg/injection, schedule: Q01DX005 (ip), vehicle: alkali diluted with saline", "result": "100 % of control"},
      {"measurement": "T/C", "setting": "dose: 12.5 mg/kg/injection, schedule: Q01DX005 (ip), vehicle: alkali diluted with saline", "result": "96 % of control"},
      {"measurement": "T/C", "setting": "dose: 25.0 mg/kg/injection, schedule: Q01DX005 (ip), vehicle: alkali diluted with saline", "result": "107 % of control"}
    ]},
    {"smiles": "COc1ccc(N=Nc2ccc(N(CCCl)CCCl)cc2)cc1", "values": [
      {"measurement": "T/C", "setting": "[1]", "result": "106 % of control"},
      {"measurement": "T/C", "setting": "dose: 50.0 mg/kg/injection, schedule: Q01DX001 (ip), vehicle: Klucel (hydroxypropylcellulose) (HPC)", "result": "108 % of control"},
      {"measurement": "T/C", "setting": "dose: 100.0 mg/kg/injection, schedule: Q01DX001 (ip), vehicle: Klucel (hydroxypropylcellulose) (HPC)", "result": "110 % of control"}
    ]},
    {"smiles": "COc1ccccc1C1OC(=N)C(=S)N1C", "note": "(stereo not drawn)", "values": [
      {"measurement": "T/C", "setting": "dose: 60.0 mg/kg/injection, schedule: Q01DX005 (ip), vehicle: Klucel (hydroxypropylcellulose) (HPC)", "result": "107 % of control"},
      {"measurement": "T/C", "setting": "dose: 120.0 mg/kg/injection, schedule: Q01DX005 (ip), vehicle: Klucel (hydroxypropylcellulose) (HPC)", "result": "111 % of control"},
      {"measurement": "T/C", "setting": "dose: 240.0 mg/kg/injection, schedule: Q01DX005 (ip), vehicle: Klucel (hydroxypropylcellulose) (HPC)", "result": "113 % of control"}
    ]},
    {"smiles": "CC(C)C(=O)NCCCCCCN1CCCCC1", "values": [
      {"measurement": "T/C", "setting": "dose: 50.0 mg/kg/injection, schedule: Q01DX005 (ip), vehicle: saline", "result": "96 % of control"},
      {"measurement": "T/C", "setting": "dose: 100.0 mg/kg/injection, schedule: Q01DX005 (ip), vehicle: saline", "result": "100 % of control"}
    ]},
    {"smiles": "Cc1cc(N2C(=O)CSC2=S)c([N+](=O)[O-])cc1C", "values": [
      {"measurement": "T/C", "setting": "dose: 50.0 mg/kg/injection, schedule: Q01DX009 (ip), vehicle: suspension in saline", "result": "91 % of control"},
      {"measurement": "T/C", "setting": "dose: 100.0 mg/kg/injection, schedule: Q01DX009 (ip), vehicle: suspension in saline", "result": "89 % of control"}
    ]},
    {"smiles": "O=C(O)c1c[nH]c2cc(OCCOc3ccc(F)cc3)ccc2c1=O", "values": [
      {"measurement": "T/C", "setting": "dose: 100.0 mg/kg/injection, schedule: Q04DX003 (ip), vehicle: saline", "result": "105 % of control"},
      {"measurement": "T/C", "setting": "dose: 200.0 mg/kg/injection, schedule: Q04DX003 (ip), vehicle: saline", "result": "105 % of control"},
      {"measurement": "T/C", "setting": "dose: 400.0 mg/kg/injection, schedule: Q04DX003 (ip), vehicle: saline", "result": "104 % of control"}
    ]},
    {"smiles": "COc1cc2c(cc1C(CC(=O)O)c1ccc3c(c1)OCO3)OCO2", "note": "(stereo not drawn)", "values": [
      {"measurement": "T/C", "setting": "dose: 50.0 mg/kg/injection, schedule: Q01DX005 (ip), vehicle: saline with Tween-80", "result": "103 % of control"},
      {"measurement": "T/C", "setting": "dose: 100.0 mg/kg/injection, schedule: Q01DX005 (ip), vehicle: saline with Tween-80", "result": "105 % of control"},
      {"measurement": "T/C", "setting": "dose: 200.0 mg/kg/injection, schedule: Q01DX005 (ip), vehicle: saline with Tween-80", "result": "103 % of control"}
    ]},
    {"smiles": "NC(=O)c1cncc(CCC(O)C(=O)O)c1", "note": "(stereo not drawn)", "values": [
      {"measurement": "T/C", "setting": "dose: 25.0 mg/kg/injection, schedule: Q04DX003 (ip), vehicle: Klucel (hydroxypropylcellulose) (HPC)", "result": "96 % of control"},
      {"measurement": "T/C", "setting": "dose: 50.0 mg/kg/injection, schedule: Q04DX003 (ip), vehicle: Klucel (hydroxypropylcellulose) (HPC)", "result": "91 % of control"},
      {"measurement": "T/C", "setting": "dose: 100.0 mg/kg/injection, schedule: Q04DX003 (ip), vehicle: Klucel (hydroxypropylcellulose) (HPC)", "result": "100 % of control"}
    ]},
    {"smiles": "c1ccc([S][Pb]([c]2ccccc2)([c]2ccccc2)[c]2ccccc2)cc1", "values": [
      {"measurement": "T/C", "setting": "dose: 6.25 mg/kg/injection, schedule: Q01DX001 (ip), vehicle: Klucel (hydroxypropylcellulose) (HPC)", "result": "96 % of control"},
      {"measurement": "T/C", "setting": "dose: 12.5 mg/kg/injection, schedule: Q01DX001 (ip), vehicle: Klucel (hydroxypropylcellulose) (HPC)", "result": "122 % of control"},
      {"measurement": "T/C", "setting": "[1]", "result": "114 % of control"}
    ]},
    {"smiles": "O=C(O)c1cc2oc(-c3ccccc3)cc2[nH]1", "values": [
      {"measurement": "T/C", "setting": "dose: 60.0 mg/kg/injection, schedule: Q01DX005 (ip), vehicle: saline with Tween-80", "result": "94 % of control"},
      {"measurement": "T/C", "setting": "dose: 120.0 mg/kg/injection, schedule: Q01DX005 (ip), vehicle: saline with Tween-80", "result": "92 % of control"}
    ]},
    {"smiles": "O=[N+]([O-])c1cn[n+]([O-])c2ccccc12", "values": [
      {"measurement": "T/C", "setting": "dose: 12.5 mg/kg/injection, schedule: Q01DX009 (ip), vehicle: saline with Tween-80", "result": "119 % of control"},
      {"measurement": "T/C", "setting": "dose: 50.0 mg/kg/injection, schedule: Q01DX009 (ip), vehicle: saline with Tween-80", "result": "86 % of control"}
    ]},
    {"smiles": "COP(=S)(OC)SCc1cc(=O)n2c(C)cccc2n1", "values": [
      {"measurement": "T/C", "setting": "dose: 6.25 mg/kg/injection, schedule: Q01DX005 (ip), vehicle: distilled water + alcohol", "result": "102 % of control"},
      {"measurement": "T/C", "setting": "dose: 12.5 mg/kg/injection, schedule: Q01DX005 (ip), vehicle: distilled water + alcohol", "result": "100 % of control"},
      {"measurement": "T/C", "setting": "dose: 25.0 mg/kg/injection, schedule: Q01DX005 (ip), vehicle: distilled water + alcohol", "result": "102 % of control"}
    ]},
    {"smiles": "CCOc1ccc2nc(NN=O)sc2c1", "values": [
      {"measurement": "T/C", "setting": "dose: 1.56 mg/kg/injection, schedule: Q01DX009 (ip), vehicle: water", "result": "100 % of control"},
      {"measurement": "T/C", "setting": "dose: 3.12 mg/kg/injection, schedule: Q01DX009 (ip), vehicle: water", "result": "100 % of control and 95 % of control"},
      {"measurement": "T/C", "setting": "dose: 6.25 mg/kg/injection, schedule: Q01DX009 (ip), vehicle: water", "result": "101 % of control and 98 % of control"},
      {"measurement": "T/C", "setting": "dose: 12.5 mg/kg/injection, schedule: Q01DX009 (ip), vehicle: water", "result": "100 % of control and 104 % of control"},
      {"measurement": "T/C", "setting": "dose: 25.0 mg/kg/injection, schedule: Q01DX009 (ip), vehicle: water", "result": "100 % of control and 101 % of control"},
      {"measurement": "T/C", "setting": "dose: 50.0 mg/kg/injection, schedule: Q01DX009 (ip), vehicle: water", "result": "104 % of control"}
    ]}
  ]
}
